Data set [1] is described as follows: Release of FITC-BSA protein from nanostructured PCL devices. The format is physicochemical. The settings on record: nanostructured PCL devices (n=3), pore size 20-40 nm. The text has this: Multilayer thin film devices having pore sizes in the range of […]-40 nm were fabricated as described herein.
The nature of data set [2]: Payload calculations and safety consideration. The settings on record: device designed for delivery over 6 months, failure. As for the experimental part: The loading requirements for a device are analyzed based upon a zero-order release profile that maintains concentration in the posterior of the eye for at least a 4 month period. For example, based on a 5 mm×5 mm thin-film with 20 nm pores, with a void space of 50% a maximal drug load in this device is 1.3 mg of lyophilized drug, with release rates as high 2 μg/day/mm^2 based on membrane experiments. Desired release rates depend on drug affinity, vitreous half-life, and target vitreous concentration. […] Complete dose dumping for a device designed for delivery over 6 months would produce systemic drug concentration of less than 3.4 ng/ml upon failure, which falls well below the 11-27 ng/ml threshold thought to inhibit VEGF by 50%. In addition, a multi-chambered reservoir (FIG. 10) minimizes the risk that the entire drug payload could be inadvertently dumped. Based upon conservative estimates of Lucentis© half-life in the vitreous humor, a device loaded with approximately 800 μg of drug is estimated to maintain therapeutic levels for a 6 month or longer period.

In the case of “FITC-BSA: FITC-BSA protein released from nanostructured PCL devices”, in data set [1], the release rate was determined as 1 µg/day and the “time period of release” value is given as 210 days. Take “ranibizumab: anti-VEGF formulation (Lucentis, Genentech, Inc.)”: in data set [2], the “systemic drug concentration upon complete dose dumping” value is “less than 3.4 ng/ml”.
